Data as given in patent publication US11596639B2, “Substituted indole Mcl-1 inhibitors” (Vanderbilt University, priority 2016, dated 2023).
Read-outs that look alike come from different tables or passages of the source.

Tests used:
[1] = system: H929 human cancer cell lines; assay: Cellular viability / proliferation (Cell TiterGlo, 72 h); assay type: cell-based
Method in brief: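 H929 cells plated at 1,000/well in 10% FBS medium received a 2-fold serial compound dilution (top 50 μM, DMSO <1%) 24 h later. After 72 h, viability was read by CellTiter-Glo luminescence. IC50 came from a four-parameter fit.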

Mcl-1 = Mcl-1 (Homo sapiens (Human), UniProt Q07820); assay: Fluorescence polarization anisotropy (FPA) competition assay, FITC-Bak or FITC-Bim BH3 peptide; assay type: binding; conditions: read-out: Ki for Inhibition of Mcl-1 by FPA assay
Mcl-1, sequence (Q07820 172-327): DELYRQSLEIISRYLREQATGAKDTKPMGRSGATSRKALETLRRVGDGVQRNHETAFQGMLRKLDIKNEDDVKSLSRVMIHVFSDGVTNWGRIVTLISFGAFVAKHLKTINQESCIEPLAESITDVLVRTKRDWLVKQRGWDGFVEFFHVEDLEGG

[2] = Homo sapiens, NCI-H929, 72 h, read-out: GI50 on cellular proliferation of H929 human cancer cell lines, H929 cells, 72 h, Cell TiterGlo, 10% FBS

Structure (SMILES) | GI50 [1, 2] | Ki (Mcl-1) | GI50 ([1]; H929 cells, 72 h, Cell TiterGlo, 10% FBS, read-out: GI50 on cellular proliferation of H929 human cancer cell lines) | GI50 ([1]; read-out: GI50 on cellular proliferation of H929 human cancer cell lines, H929 cells, 72 h, Cell TiterGlo, 10% FBS)
CNC(=O)c1ccc2c(c1)c(N1C[C@@H](C)n3c(c(CCCOc4cc(C)c(Cl)c(C)c4)c4ccc(Cl)c(-c5c(C)nn(C)c5C)c43)C1=O)cn2C [Example 286, (R)-3-(7-chloro-10-(3-(4-chloro-3,5-dimethylphenoxy)propyl)-4-methyl-1-oxo-6-(1,3,5-trimethyl-1H-pyrazol-4-yl)-3,4-dihydropyrazino[1,2-a]indol-2(1H)-yl)-N,1-dimethyl-1H-indole-5-carboxamide] | 0.51 µM | 0.0033 µM |  | 
Cc1cc(OCCCc2c3n(c4c(-c5c(C)nn(C)c5C)c(Cl)ccc24)[C@H](C)CN(c2cn(C)c4c(C)cc(C(=O)O)cc24)C3=O)cc(C)c1Cl [Example 145, (R)-3-(7-chloro-10-(3-(4-chloro-3,5-dimethylphenoxy)propyl)-4-methyl-1-oxo-6-(1,3,5-trimethyl-1H-pyrazol-4-yl)-3,4-dihydropyrazino[1,2-a]indol-2(1H)-yl)-1,7-dimethyl-1H-indole-5-carboxylic acid] | 0.36 µM | < 0.001 µM |  | 
COCCn1cc(N2C[C@@H](C)n3c(c(CCCOc4cc(C)c(Cl)c(C)c4)c4ccc(Cl)c(-c5c(C)nn(C)c5C)c43)C2=O)c2cc(C(=O)O)ccc21 [Example 268, (R)-3-(7-chloro-10-(3-(4-chloro-3,5-dimethylphenoxy)propyl)-4-methyl-1-oxo-6-(1,3,5-trimethyl-1H-pyrazol-4-yl)-3,4-dihydropyrazino[1,2-a]indol-2(1H)-yl)-1-(2-methoxyethyl)-1H-indole-5-carboxylic acid] | 0.41 µM | < 0.001 µM |  | 
Cc1cc(OCCCc2c3n(c4c(-c5c(C)nn(CC(=O)O)c5C)c(Cl)ccc24)CCCN(c2cccc4cccnc24)C3=O)cc(C)c1Cl [Example 144, 2-(4-(8-Chloro-11-(3-(4-chloro-3,5-dimethylphenoxy)propyl)-1-oxo-2-(quinolin-8-yl)-2,3,4,5-tetrahydro-1H-[1,4]diazepino[1,2-a]indol-7-yl)-3,5-dimethyl-1H-pyrazol-1-yl)acetic acid] | 6.5 µM | < 0.001 µM |  | 
Cc1cc(OCCCc2c3n(c4c(-c5c(C)nn(C)c5C)c(Cl)ccc24)[C@H](C)CN(c2nn(C)c4c(C(=O)O)cccc24)C3=O)cc(C)c1Cl [Example 165, (R)-3-(7-Chloro-10-(3-(4-chloro-3,5-dimethylphenoxy)propyl)-4-methyl-1-oxo-6-(1,3,5-trimethyl-1H-pyrazol-4-yl)-3,4-dihydropyrazino[1,2-a]indol-2(1H)-yl)-1-methyl-1H-indazole-7-carboxylic acid] | 1.2 µM | 0.001 µM |  | 
COCCOc1ccc(N2C[C@@H](C)n3c(c(CCCOc4cc(C)c(Cl)c(C)c4)c4ccc(Cl)c(-c5c(C)nn(C)c5C)c43)C2=O)c2c1cc(C(=O)O)n2C [Example 325, (M, R)-7-(7-Chloro-10-(3-(4-chloro-3,5-dimethylphenoxy)propyl)-4-methyl-1-oxo-6-(1,3,5-trimethyl-1H-pyrazol-4-yl)-3,4-dihydropyrazino[1,2-a]indol-2(1H)-yl)-4-(2-methoxyethoxy)-1-methyl-1H-indole-2-carboxylic acid] |  | < 0.001 µM | 0.29 µM | 
COc1ccc(N2C[C@@H](C)n3c(c(CCCOc4cc(C)c(Cl)c(C)c4)c4ccc(Cl)c(-c5c(C)nn(C)c5C)c43)C2=O)c2c1cc(C(N)=O)n2Cc1ccccn1 [Example 466, (R)-7-(7-Chloro-10-(3-(4-chloro-3,5-dimethylphenoxy)propyl)-4-methyl-1-oxo-6-(1,3,5-trimethyl-1H-pyrazol-4-yl)-3,4-dihydropyrazino[1,2-a]indol-2(1H)-yl)-4-methoxy-1-(pyridin-2-ylmethyl)-1H-indole-2-carboxamide] | 0.3 µM | 0.0018 µM |  | 
Cc1nnc(Cn2c(C(=O)O)cc3cccc(N4C[C@@H](C)n5c(c(CCCOc6cc(C)c(Cl)c(C)c6)c6ccc(Cl)c(-c7c(C)nn(C)c7C)c65)C4=O)c32)o1 [Example 315, 7-[(4R)-7-chloro-10-[3-(4-chloro-3,5-dimethyl-phenoxy)propyl]-4-methyl-1-oxo-6-(1,3,5-trimethylpyrazol-4-yl)-3,4-dihydropyrazino[1,2-a]indol-2-yl]-1-[(5-methyl-1,3,4-oxadiazol-2-yl)methyl]indole-2-carboxylic acid] | 2.8 µM | < 0.001 µM |  | 
Cc1cc(OCCCc2c3n(c4c(-c5c(C)nn(C)c5C)c(Cl)ccc24)[C@H](C)CN(c2cc(C(=O)O)c4cnn(C(C)C)c4c2)C3=O)cc(C)c1Cl [Example 131, 6-[(4R)-7-chloro-10-[3-(4-chloro-3,5-dimethyl-phenoxy)propyl]-4-methyl-1-oxo-6-(1,3,5-trimethylpyrazol-4-yl)-3,4-dihydropyrazino[1,2-a]indol-2-yl]-1-isopropyl-indazole-4-carboxylic acid] | 1.9 µM | < 0.001 µM |  | 
Cc1cc(OCCCc2c3n(c4c(-c5c(C)nn(C)c5C)c(Cl)ccc24)[C@H](C)CN(c2cn(C)c4ccc(-c5noc(=O)[nH]5)cc24)C3=O)cc(C)c1Cl [Example 442, (R)-3-(3-(7-Chloro-10-(3-(4-chloro-3,5-dimethylphenoxy)propyl)-4-methyl-1-oxo-6-(1,3,5-trimethyl-1H-pyrazol-4-yl)-3,4-dihydropyrazino[1,2-a]indol-2(1H)-yl)-1-methyl-1H-indol-5-yl)-1,2,4-oxadiazol-5(4H)-one] | 0.23 µM | 0.0023 µM |  | 
Cc1cc(OCCCc2c3n(c4c(-c5c(C)ncnc5C)c(Cl)ccc24)[C@H](C)CN(c2cc(C(=O)O)c4ccn(C)c4c2)C3=O)cc(C)c1Cl [Example 152, 6-[(4R)-7-chloro-10-[3-(4-chloro-3,5-dimethyl-phenoxy)propyl]-6-(4,6-dimethylpyrimidin-5-yl)-4-methyl-1-oxo-3,4-dihydropyrazino[1,2-a]indol-2-yl]-1-methyl-indole-4-carboxylic acid] | 0.85 µM | < 0.001 µM |  | 
Cc1cc(OCCCc2c3n(c4c(-c5c(C)nn(C)c5C)c(Cl)ccc24)[C@H](C)CN(c2cccc4cc5n(c24)CCN(CCC(C)C)C5=O)C3=O)cc(C)c1Cl [Example 229, (4R)-7-chloro-10-[3-(4-chloro-3,5-dimethyl-phenoxy)propyl]-2-(2-isopentyl-1-oxo-3,4-dihydropyrazino[1,2-a]indol-6-yl)-4-methyl-6-(1,3,5-trimethylpyrazol-4-yl)-3,4-dihydropyrazino[1,2-a]indol-1-one] | 9.3 µM | 0.0037 µM |  | 
Cc1cc(OCCCc2c3n(c4c(-c5c(C)nn(C)c5C)c(Cl)ccc24)[C@H](C)CN(c2coc4ccccc24)C3=O)cc(C)c1Cl (single isomer, unassigned) [Example 246] |  | 0.0086 µM |  | 5.3 µM
Cc1cc(OCCCc2c3n(c4c(-c5c(C)nn(C)c5C)c(Cl)ccc24)[C@H](C)CN(c2cn(C)c4c(C(=O)O)cccc24)C3=O)cc(C)c1Cl [Example 75, (R)-3-(7-Chloro-10-(3-(4-chloro-3,5-dimethylphenoxy)propyl)-4-methyl-1-oxo-6-(1,3,5-trimethyl-1H-pyrazol-4-yl)-3,4-dihydropyrazino[1,2-a]indol-2(1H)-yl)-1-methyl-1H-indole-7-carboxylic acid] | 1.1 µM | < 0.001 µM |  | 
